Laboratory results reported in patent publication US20100292306A1, “Compositions And Methods For The Treatment Of Muscular Dystrophy” (priority 2005, published 2010).
“Also recorded” adds a separate entry of the source.

What was measured:
[1] = system: cytosolic IκB-α; experiment: Western blot of cytosolic IκB-α in mdx diaphragm after a single PDTC dose; type: in vivo, mdx mice
Experimental: Cytosolic levels of IκB-α may be determined using Western blot techniques. Cytosolic and nuclear fractions may be obtained from isolated diaphragm muscles using the techniques described in Kumar and Boriek, 2003. Briefly, the muscles may be weighed after removing tendinous components, and frozen and homogenized by mortar and pestle in lysis buffer on ice (1 mg muscle/18 μl lysis buffer containing 10 mM HEPES, 10 mM KCl, 1.5 mM MgCl2, 0.1 mM EDTA, 0.1 mM EGTA, 1 mM dithiothreitol, 0.5 mM phenylmethylsulfonylfluoride, 2.0 μg/ml leupeptin, 2.0 μg/ml aprotinin, 0.5 mg/ml benzamidine, at pH 7.9). To lyse the cells, the ground tissue may be subjected to two freeze-thaw cycles and subsequently vortexed and centrifuged (13,000 rpm, 10 s). […]
Equal amounts of proteins (based on Lowry Assay) from treated vs. untreated cytosolic fractions may be boiled in SDS-PAGE sample buffer for 5 min, applied to 10% SDS-PAGE gel, and blotted onto PVDF (polyvinyl difluoride) membrane. […] After additional washing steps, the antibody complex may be detected by chemiluminescence using the ECL detection reagent (Amersham) and densitometric measurements may also be obtained. […]

[2] = system: mdx triangularis sterni (TS) muscle; experiment: Histological cross sections of mdx TS muscle (fiber number, diameter, density, myonuclei, centronucleation); type: in vivo, mdx mice; settings: 50 mg/kg daily 30 days from 30 days of age, read at 60 days; p<0.001

S=C(S)N1CCCC1 [PDTC, pyrrolidine dithiocarbamate]
period of increased cytosolic IκB-α levels ([1]; single dose 50 mg/kg ip, adult mdx skeletal muscle): at least 5 h
ambient levels of cytosolic IκB-α ([1]; single ip dose 50 mg/kg, diaphragm 3 and 5 h after injection, vs vehicle littermates, 50 mg/kg): substantially increased; also recorded: increases
percent centronucleation [2]: reduced; also recorded: significantly reduces
